Our source for the IC50 and inhibition values is patent publication US5665719A, “Benzoxazinone and benzopyrimidinone piperidinyl tocolytic oxytocin receptor antagonists” (Merck & Co., Inc., priority 1995, dated 1997).

For one test, the target named is T1, uterine OT receptors (Rattus norvegicus, UniProt P70536).
T1 construct: from tissue; host or cells: uterus of diethylstilbestrol dipropionate (DES)-treated rats, crude membrane preparation
T1 sequence (P70536 1-388): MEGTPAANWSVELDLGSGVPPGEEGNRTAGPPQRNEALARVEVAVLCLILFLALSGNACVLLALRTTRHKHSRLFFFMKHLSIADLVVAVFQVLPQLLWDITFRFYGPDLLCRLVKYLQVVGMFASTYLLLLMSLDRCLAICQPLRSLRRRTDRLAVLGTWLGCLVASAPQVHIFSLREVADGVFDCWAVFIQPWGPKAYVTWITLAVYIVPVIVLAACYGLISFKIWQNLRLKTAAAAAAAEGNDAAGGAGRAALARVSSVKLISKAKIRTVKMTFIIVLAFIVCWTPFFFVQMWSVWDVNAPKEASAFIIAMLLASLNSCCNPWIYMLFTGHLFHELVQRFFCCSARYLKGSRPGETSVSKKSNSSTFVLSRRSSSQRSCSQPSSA
Description: [3H]Oxytocin (OT) radioligand binding to uterine OT receptors, crude uterine membranes from DES-treated rats.
Conditions: not given
The method, then:
Competition studies were conducted at equilibrium (60 minutes; 22° C.) using 1 nM[^3 H]OT in the following assay buffer: 50 mM Tris-HCl, 5 mM MgCl2, and 0.1% BSA, pH 7.4. Nonspecific binding (10% of the total binding) was determined using 1 μM unlabeled OT and the binding reaction was terminated by filtration through glass fiber filters using a cell harvester (model 7019, Skatron, Inc., Sterling, Va.).
IC50 values were determined for the [^3 H]OT and [^3 H]AVP binding assays by linear regression of the relation log concentration of compound vs. percent inhibition of specific binding. Data is either reported as a given percentage of inhibition at a specified concentration,or if an IC50 was calculated, as a nanomolar concentration.
In general, IC50 refers to the concentration that gives 50% inhibition. The compound `CCOC(=O)CN1CCC(Oc2ccc(C(=O)N3CCC(N4C(=O)OCc5ccccc54)CC3)c(OC)c2)CC1` [Example 48, 1-(1-(4-(1-(Ethoxycarbonylmethyl)-4-piperidinyloxy)-2-methoxybenzoyl)piperidin-4-yl)-1,2-dihydro-4(H)-3,1-benzoxazin-2-one] returned an IC50 of 0.34 µM.
The same measure, in the same setting: next, `COc1cc(OC2CCN(C(=O)CCCN)CC2)ccc1C(=O)N1CCC(N2C(=O)OCc3ccccc32)CC1` [Example 30, 1-(1-(4-(1-(4-Aminobutanoyl)-4-piperidinyloxy)-2-methoxybenzoyl)piperidin-4-yl)-1,2-dihydro-4(H)-3,1-benzoxazin-2-one]: 0.069 µM; `COc1cc(OCCCN)ccc1C(=O)N1CCC(N2C(=O)OCc3ccccc32)CC1` [Example 12, 1-(1-(4-(3-Aminopropoxy)-2-methoxybenzoyl)piperidin-4-yl)-1,2-dihydro-4(H)-3,1-benzoxazin-2-one]: 0.41 µM; `COc1cc(OC2CCN(C(=O)Cc3cnc[nH]3)CC2)ccc1C(=O)N1CCC(N2C(=O)OCc3ccccc32)CC1` [Example 45, 1-(1-(4-(1-(4(5)-Imidazolylacetyl)-4-piperidinyloxy)-2-methoxybenzoyl)piperidin-4-yl)-1,2-dihydro-4(H)-3,1-benzoxazin-2-one]: 0.044 µM.
Regarding `COc1cc(OCCCNS(C)(=O)=O)ccc1C(=O)N1CCC(N2C(=O)OCc3ccccc32)CC1` [Example 17, 1-(1-(4-(3-((Methylsulfonyl)amino)propoxy)-2-methoxybenzoyl)piperidin-4-yl)-1,2-dihydro-4(H)-3,1-benzoxazin-2-one], the IC50 came to 0.081 µM.
On the same count and under the same terms, next, `COc1ccc(C(=O)N2CCC(N3C(=O)OCc4ccccc43)CC2)c([N+](=O)[O-])c1` [Example 44, 1-(1-(4-Methoxy-2-nitrobenzoyl)piperidin-4-yl)-1,2-dihydro-4(H)-3,1-benzoxazin-2-one]: 5 µM; `CC(=O)N(C)CCCOc1ccc(C(=O)N2CCC(N3C(=O)OCc4ccccc43)CC2)cc1` [Example 24, 1-(1-(4-(3-(N-Methyl(acetylamino))propoxy)benzoyl)piperidin-4-yl)-1,2-dihydro-4(H)-3,1-benzoxazin-2-one]: 0.55 µM; `CCN(CC)CCS(=O)(=O)N1CCC(Oc2ccc(C(=O)N3CCC(N4C(=O)OCc5ccccc54)CC3)c(OC)c2)CC1` [Example 46, 1-(1-(4-(1-(Diethylaminoethylsulfonyl)-4-piperidinyloxy)-2-methoxybenzoyl)piperidin-4-yl)-1,2-dihydro-4(H)-3,1-benzoxazin-2-one]: 0.023 µM.
Still for that read-out and setting: with `COc1cc(OCCCN2C(=O)CN(C)C2=O)ccc1C(=O)N1CCC(N2C(=O)OCc3ccccc32)CC1` [Example 22, 1-(1-(4-(3-(1-Methylimidazoline-2,4-dione-3-yl)propoxy)-2-methoxybenzoyl)piperidin-4-yl)-1,2-dihydro-4(H)-3,1-benzoxazin-2-one] the figure was 0.26 µM; with `O=C(c1ccc(OC2CCNCC2)cc1Cl)N1CCC(N2C(=O)OCc3ccccc32)CC1` [Example 52, 1-(1-(4-(4-Piperidinyloxy)-2-chlorobenzoyl)piperidin-4-yl)-1,2-dihydro-4(H)-3,1-benzoxazin-2-one], 4.3 µM.
`COc1ccc(C(=O)N2CCC(N3C(=O)Cc4ccccc43)CC2)c(OC)c1` [Example 55, 1-(1-(2,4-dimethoxybenzoyl)-4-piperidyl)indol-2-one]: the IC50 was found to be 6.2 µM.
`COc1cc(OCCCNC(=O)C2CCNCC2)ccc1C(=O)N1CCC(N2C(=O)OCc3ccccc32)CC1` [Example 14, 1-(1-(4-(3-(4-Piperidinylcarbonylamino)propoxy)-2-methoxybenzoyl)piperidin-4-yl)-1,2-dihydro-4(H)-3,1-benzoxazin-2-one] showed an IC50 of 0.074 µM.
Same read-out and setting: next, `O=C(Nc1ccc(CC(=O)N2CCC(N3C(=O)OCc4ccccc43)CC2)cc1)c1ccc2[nH]cnc2c1` [Example 9, 1-(1-(4-((5-Benzimidazolylcarbonyl)amino)phenylacetyl)piperidin-4-yl)-1,2-dihydro-4(H)-3,1-benzoxazin-2-one]: 0.28 µM; `O=C(/C=C/c1ccccc1)N1CCC(N2C(=O)OCc3ccccc32)CC1` [Example 7, 1-(1-(Cinnamoyl)piperidin-4-yl)-1,2-dihydro-4(H)-3,1-benzoxazin-2-one]: 6.2 µM; `COc1cc(OC2CCN(S(=O)(=O)CCCN(C)C3CC3)CC2)ccc1C(=O)N1CCC(N2C(=O)OCc3ccccc32)CC1` [Example 66, 1-(1-(4-(1-((3-N-Cyclopropyl-N-methylamino)propylsulfonyl)piperidin-4-yloxy)-2-methoxybenzoyl)piperidin-4-yl)-1,2-dihydro-4(H)-3,1-benzoxazin-2-one]: 0.025 µM.
The same measure, in the same setting: with `COc1cc(OCCCNC(=O)C2CCNCC2)c(Cl)cc1C(=O)N1CCC(N2C(=O)OCc3ccccc32)CC1` [Example 15, 1-(1-(4-(3-(4-Piperidinylcarbonylamino)propoxy)-6-methoxy-3-chlorobenzoyl)piperidin-4-yl)-1,2-dihydro-4(H)-3,1-benzoxazin-2-one] the figure was 0.056 µM.

The test is the same for the next values; noted with them: competition vs 1 nM [3H]OT, 60 minutes, 22° C., pH 7.4, rat uterus membranes; read-out: Result For [3H]OT (IC50).
For the compound `COc1ccc(C(=O)N2CCC(N3C(=O)OCc4sccc43)CC2)c(OC)c1` [Example 63, 1-(1-(2,4-dimethoxybenzoyl)piperidin-4-yl)-1,2-dihydro-4 (H)-3,1-thienoxazin-2-one], the IC50 turned out to be 0.59 µM.

The same test, now with this note: inhibition at 1,000 nM; 1 nM [3H]OT, 60 minutes, 22° C., pH 7.4; read-out: Result For [3H]OT (% inhib. at 1,000 nM).
For `CC(C)(C)OC(=O)N1CCC(C(=O)NCCCOc2ccc(C(=O)N3CCC(N4C(=O)OCc5ccccc54)CC3)c(O)c2)CC1` [Example 49, 1-(1-(4-(3-(N-t-Butyloxycarbonylpiperidin-4-ylcarbonylamino)propoxy)-2-hydroxybenzoyl)piperidin-4-yl)-1,2-dihydro-4(H)-3,1-benzoxazin-2-one], the inhibition at 1 µM was found to be 72%.
On to `COc1cc(OC2CCN(C(=O)OC(C)(C)C)CC2)ccc1C(=O)N1CCC(N2C(=O)COc3ccccc32)CC1` [Example 41, 4-(1-(4-(4-(1-t-Butyloxycarbonyl)piperidinyloxy)-2-methoxybenzoyl)piperidin-4-yl)-(2H)-1,4-benzoxazin-3(4H)-one], for which the inhibition at 1 µM amounted to 42%.
For the compound `Cc1cc(OC2CCN(C(=O)OC(C)(C)C)CC2)ccc1C(=O)N1CCC(N2C(=O)OCc3ccccc32)CC1` [Example 43, 1-(1-(4-(N-t-Butoxycarbonyl-4-piperidinyloxy)-2-methylbenzoyl)piperidin-4-yl)-1,2-dihydro-4(H)-3,1-benzoxazin-2-one], the inhibition at 1 µM stood at 59%.
Consider `COc1cc(C(=O)N2CCN(C(=O)OC(C)(C)C)CC2)ccc1C(=O)N1CCC(N2C(=O)OCc3ccccc32)CC1` [Example 39, 1-(1-(4-(4-(t-Butyloxycarbonyl)piperazin-1-ylcarbonyl)-2-methoxybenzoyl)piperidin-4-yl)-1,2-dihydro-4(H)-3,1-benzoxazin-2-one], for which the inhibition at 1 µM stood at 46%.

Staying with this test, now noted: inhibition at 10,000 nM; 1 nM [3H]OT, 60 minutes, 22° C., pH 7.4; read-out: Result For [3H]OT (% inhib. at 10,000 nM).
For `COc1ccc(C(=O)N2CCC(N3C(=O)OCc4ccccc43)CC2C#N)c(OC)c1` (centres unmarked) [Example 60, 1-(1-(2,4-dimethoxybenzoyl)-2-cyanopiperidin-4-yl)-1,2-dihydro-4(H)-3,1-benzoxazin-2-one], the inhibition at 10 µM came to 70%.
As for `O=C(c1ccc(OCC2CCCNC2)cc1)N1CCC(N2C(=O)OCc3ccccc32)CC1` (centres unmarked) [Example 32, 1-(1-(4-(3-Piperidinylmethoxy)benzoyl)piperidin-4-yl)-1,2-dihydro-4(H)-3,1-benzoxazin-2-one], the inhibition at 10 µM came to 78%.
Still for that read-out and setting: next, `O=C(c1cc2ccccc2[nH]1)N1CCC(N2C(=O)OCc3ccccc32)CC1` [Example 4]: 78%; `COc1ccc(C(=O)N2CC(N3C(=O)OCc4ccccc43)C2)c(OC)c1` [Example 57, 1-(1-(2,4-Dimethoxybenzoyl)azetidin-3-yl)-1,2-dihydro-4(H)-3,1-benzoxazin-2-one]: 54%; `COc1ccc(C(=O)N2CCC(N3C(=O)N(C)Cc4ccccc43)CC2)c(OC)c1` [Example 36, 1-(2,4-Dimethoxybenzoylpiperidin-4-yl)-3,4-dihydro-3-methylquinazolin-2(1H)-one]: 48%.
In the case of `COc1cc(OC)c(C(=O)N2CCC(N3C(=O)OCc4ccccc43)CC2)c(OC)c1` [Example 1], the inhibition at 10 µM worked out at 61%.
On the same count and under the same terms, next, `COc1ccc(C(=O)N2CCC(N3C(=O)OC(C)(C)c4ccccc43)CC2)c(OC)c1` [Example 61, 1-(1-(2,4-dimethoxybenzoyl)piperidin-4-yl)-4,4-dimethyl-1,2-dihydro-4(H)-3,1-benzoxazin-2-one]: 64%.
Take `O=C(c1ccccn1)N1CCC(N2C(=O)OCc3ccccc32)CC1` [Example 3]: the inhibition at 10 µM is 40%.
